This is an account of results in patent US20230049952A1, “METHODS AND COMPOUNDS FOR RESTORING MUTANT P53 FUNCTION” (PMV Pharmaceuticals, Inc., priority 2020, published 2023).

Usually efflux ratio stands for the permeability from basolateral to apical divided by that in the opposite direction, in the common usage.

One series deals with human hepatocytes. The following applies: male, 72 h, 100 μM.
The target in series [1] is T1, BCRP (Homo sapiens, UniProt Q9UNQ0).
T1 sequence (Q9UNQ0 1-655): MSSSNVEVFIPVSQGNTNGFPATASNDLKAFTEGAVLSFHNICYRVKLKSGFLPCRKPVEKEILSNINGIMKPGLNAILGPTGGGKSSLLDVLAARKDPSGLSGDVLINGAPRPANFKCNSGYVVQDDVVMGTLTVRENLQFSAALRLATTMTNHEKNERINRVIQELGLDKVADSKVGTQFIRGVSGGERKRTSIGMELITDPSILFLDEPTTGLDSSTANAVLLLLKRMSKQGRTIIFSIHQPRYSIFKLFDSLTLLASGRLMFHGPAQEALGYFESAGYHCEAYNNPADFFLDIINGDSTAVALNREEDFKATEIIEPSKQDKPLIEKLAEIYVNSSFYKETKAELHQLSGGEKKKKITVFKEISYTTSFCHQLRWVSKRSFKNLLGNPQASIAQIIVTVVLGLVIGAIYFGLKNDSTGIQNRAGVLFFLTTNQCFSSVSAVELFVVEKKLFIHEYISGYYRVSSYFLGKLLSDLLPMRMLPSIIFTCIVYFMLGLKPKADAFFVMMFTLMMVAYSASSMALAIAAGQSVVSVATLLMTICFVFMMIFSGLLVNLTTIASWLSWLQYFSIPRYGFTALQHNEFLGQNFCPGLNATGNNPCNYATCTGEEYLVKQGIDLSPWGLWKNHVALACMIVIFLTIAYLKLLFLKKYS
The experiment in a line: BCRP substrate assessment, Caco-2 monolayers. It is filed as in vitro ADME. Details: host or cells: Caco-2 (clone C2BBe1).

Series [2] has as its target T1, BCRP. Description: in vitro.
The target of series [3] is T1, BCRP. Description: BCRP substrate assessment, BCRP-MDCK monolayers. The series is classed as in vitro ADME. How it is done:
(§1) BCRP-MDCK cell monolayers were prepared at Absorption Systems. […] Each determination was performed in duplicate.

The test system of series [4] is BCRP. The experiment in a line: cell batch quality control, BCRP-MDCK monolayers. The following applies: dog; BCRP-MDCK cell batch QC; passage 23. The series is classed as in vitro ADME. How it is done: as §1

For the compound `CN(C)CCCN1c2ccccc2Sc2ccc(Cl)cc21` [Chlorpromazine, chlorpromazine], in the series with human hepatocytes, the “% MTS Absorbance Relative to Vehicle Control” value was 59.4% and the “Formazan Absorbance (n = 6) Mean” value was found to be 0.174.
In the case of `Nc1nc(Cl)nc2c1ncn2[C@H]1C[C@H](O)[C@@H](CO)O1` [Cladribine, cladribine], the “BCRP Substrate Classification” value is listed as “Positive” on BCRP [1] (Caco-2, Cladribine) and “Positive” on BCRP [3] (BCRP-MDCK, Cladribine). For the same compound, the recovery at 120 min on BCRP [1] (human, Caco-2, pH 7.4, Caco-2, Cladribine, A-to-B) was 80.5%; on BCRP [1] (human, Caco-2, pH 7.4, Caco-2, Cladribine, B-to-A), 85.6%; at BCRP [1] (human, Caco-2, pH 7.4, with Ko143 0.5 µM, Caco-2, Cladribine + 0.5 μM Ko143, A-to-B) it was 89.8%; at BCRP [1] (human, Caco-2, pH 7.4, with Ko143 0.5 µM, Caco-2, Cladribine + 0.5 μM Ko143, B-to-A), 87.7%; at BCRP [3] (dog, pH 7.4, BCRP-MDCK, Cladribine, A-to-B), 91.3%; at BCRP [3] (dog, pH 7.4, BCRP-MDCK, Cladribine, B-to-A), 92.9%. For the same compound, the recovery at 120 min was found to be 93.5% on BCRP [3] (dog, pH 7.4, with Ko143 0.5 µM, BCRP-MDCK, Cladribine + 0.5 μM Ko143, A-to-B) and 107% at BCRP [3] (dog, pH 7.4, with Ko143 0.5 µM, BCRP-MDCK, Cladribine + 0.5 μM Ko143, B-to-A). The Papp A→B at 120 min was 0.58 ×10⁻⁶ cm/s on BCRP [1] (human, Caco-2, pH 7.4, Caco-2, Cladribine, A-to-B, read-out: Papp AVG); 0.681 ×10⁻⁶ cm/s at BCRP [1] (human, Caco-2, pH 7.4, Caco-2, Cladribine, A-to-B, read-out: Papp R1); 0.478 ×10⁻⁶ cm/s on BCRP [1] (human, Caco-2, pH 7.4, Caco-2, Cladribine, A-to-B, read-out: Papp R2); 0.211 ×10⁻⁶ cm/s on BCRP [3] (dog, pH 7.4, BCRP-MDCK, Cladribine, A-to-B, read-out: Papp AVG); 0.142 ×10⁻⁶ cm/s on BCRP [3] (dog, pH 7.4, BCRP-MDCK, Cladribine, A-to-B, read-out: Papp R1); 0.28 ×10⁻⁶ cm/s on BCRP [3] (dog, pH 7.4, BCRP-MDCK, Cladribine, A-to-B, read-out: Papp R2). Further, the Papp B→A at 120 min on BCRP [1] (human, Caco-2, pH 7.4, Caco-2, Cladribine, B-to-A, read-out: Papp AVG) stood at 18.5 ×10⁻⁶ cm/s; at BCRP [1] (human, Caco-2, pH 7.4, Caco-2, Cladribine, B-to-A, read-out: Papp R1), 17.7 ×10⁻⁶ cm/s; on BCRP [1] (human, Caco-2, pH 7.4, Caco-2, Cladribine, B-to-A, read-out: Papp R2), 19.3 ×10⁻⁶ cm/s; on BCRP [3] (dog, pH 7.4, BCRP-MDCK, Cladribine, B-to-A, read-out: Papp AVG), 17.6 ×10⁻⁶ cm/s; at BCRP [3] (dog, pH 7.4, BCRP-MDCK, Cladribine, B-to-A, read-out: Papp R1), 15.6 ×10⁻⁶ cm/s; on BCRP [3] (dog, pH 7.4, BCRP-MDCK, Cladribine, B-to-A, read-out: Papp R2), 19.6 ×10⁻⁶ cm/s. The efflux ratio at 120 min worked out at 32 at BCRP [1] (human, pH 7.4, Caco-2, Cladribine) and 83.3 on BCRP [3] (dog, pH 7.4, BCRP-MDCK, Cladribine). In addition, the efflux ratio at BCRP [2] (Caco-2, pH 7.4) is 32; in the series on BCRP [4], 135. Moreover, the recovery on BCRP [2] (Caco-2, pH 7.4, % Recovery, IC50 determination, Caco-2, Cladribine alone, B-A) worked out at 103%; at BCRP [2] (Caco-2, pH 7.4, Recovery (%), Caco-2, Cladribine alone, A-to-B), 80.5%; on BCRP [2] (Caco-2, pH 7.4, Recovery (%), Caco-2, Cladribine alone, B-to-A) it was 85.6%. The Papp A→B came out at 0.58 ×10⁻⁶ cm/s at BCRP [2] (Caco-2, pH 7.4, Papp AVG, Caco-2, Cladribine alone, A-to-B); 0.681 ×10⁻⁶ cm/s at BCRP [2] (Caco-2, pH 7.4, Papp R1, Caco-2, Cladribine alone, A-to-B); 0.478 ×10⁻⁶ cm/s at BCRP [2] (Caco-2, pH 7.4, Papp R2, Caco-2, Cladribine alone, A-to-B); 0.136 ×10⁻⁶ cm/s with BCRP [4]. The Papp B→A on BCRP [2] (Caco-2, pH 7.4, Papp AVG, Caco-2, Cladribine alone, B-to-A) is 18.5 ×10⁻⁶ cm/s; at BCRP [2] (Caco-2, pH 7.4, Papp AVG, IC50 determination, Caco-2, Cladribine alone, B-A), 14.6 ×10⁻⁶ cm/s; at BCRP [2] (Caco-2, pH 7.4, Papp R1, Caco-2, Cladribine alone, B-to-A), 17.7 ×10⁻⁶ cm/s; on BCRP [2] (Caco-2, pH 7.4, Papp R1, IC50 determination, Caco-2, Cladribine alone, B-A), 17.8 ×10⁻⁶ cm/s; on BCRP [2] (Caco-2, pH 7.4, Papp R2, Caco-2, Cladribine alone, B-to-A), 19.3 ×10⁻⁶ cm/s; on BCRP [2] (Caco-2, pH 7.4, Papp R2, IC50 determination, Caco-2, Cladribine alone, B-A) it was 11.5 ×10⁻⁶ cm/s. Also, in the series with BCRP [4], the Papp B→A was found to be 18.4 ×10⁻⁶ cm/s.
